According to US8772493B2, “Compounds having auditory protective effect” (Ajou University Industry-Academic Cooperation Foundation, priority 2010, dated 2014):

Experiments:
[1] = system: rat hearing; assay: Measurement of brainstem evoked potential hearing in rat; assay type: in vivo; conditions: cisplatin in combination with compound (2 mM inside eardrum)
Protocol: Rats were anesthetized with a mixed anesthetic of 1:1 zoletil and rompun, and then subjected to the examination of brainstem evoked potential hearing. […] The stimulus sound was measured by lowering 13 times/sec of the alternating click sound from the strength of 75 dB HL at the ratio of 5 dB per step. The hearing threshold was defined to be a strength at which the normal wave form I is assumed on the basis of the wave form I, the frequency filter of click sound was controlled to 100-3000 Hz, and the number of total stimulus sound was 1,024.
The drug was administered inside eardrum of rats with a 26 gage needle. The brainstem evoked potential hearing was measured a total of three times on days 1, 3 and 7 after administration of the drug.

[2] = system: UB-OC1; assay: MTT assay in auditory cells UB-OC1; assay type: cell-based
Protocol: (§1) HEI-OC1 and UB-OC1 as auditory cells were subjected to MTT assay. Auditory cell lines were seeded on a 96-well plate in the ratio of 2×10^3 cells/well, and then cultured in an incubator under the condition of 37° C., 5% CO2 for 2 days. The compounds of Examples 1 and 2 were used at various concentrations with operating 5 runs for each sample, and then cultured in the incubator for 16 hours. The plate was treated with 1 mg/ml MTT solution per well, and then cultured in the incubator for 4 hours. Then, 100 μl DMSO per well was used to dissolve formazan, and the optical density of formazan as dissolved was measured at 540 nm.

[3] = system: HEI-OC1; assay: MTT assay in auditory cells HEI-OC1; assay type: cell-based; conditions: for cytotoxicity in auditory hair cells (MTT): HEI-OC1, compound alone, up to elevated dose of 200
Protocol: as §1

[4] = system: HEI-OC1 cells; assay: Cell cycle analysis using FACScan; assay type: cell-based
Protocol: The cells were treated with trypsin, washed with PBS, and then stained with a dye (5 mg/ml propidium iodide, 20 mg/ml RNase A) in a dark room at normal temperature for 15 minutes. The stained cells were analyzed with a flow cytometry cell sorter (Becton Dickinson).

[5] = system: zebrafish neuromast; assay: Scanning and transmission electron microscopy of zebrafish neuromast; assay type: in vivo, Danio rerio; conditions: 50 μM cisplatin
Source text: They were dried with a drier, treated with an evaporator (MED010; Baltec, Hudson, N.H.), and then observed using a scanning microscope (JSM-6700F JEOL, Tokyo, Japan).
Larvae were cut in the direction from head to tail, sliced to a thickness of […], and then stained with 1% toluidine blue. They were divided into ultrathin sections (90 nm) using Ultracut S microtome (Leica, Wetzlar, Germany), mounted on 200-mesh Athene thin bar-grids, treated with uranyl acetate and lead citrate, and then observed using s transmission electron microscope (EM 902A Carl Zeiss).

[6] = system: neuromasts of zebrafish; assay type: in vivo; conditions: 4 dpf larvae, 50 μM cisplatin co-treatment with compound
Protocol: To detect the apoptotic cells in the embryos, TUNEL assay was employed. […] Thereafter, the larvae were washed with PBS and fixed in 4% paraformaldehyde with 0.1% Tween 20 at room temperature for 24 h. The fixed embryos were then dehydrated, rehydrated, and treated with 60 μg/ml protease kinase (Invitrogen, USA) for 10 min. After the protease kinase treatment, the embryos were fixed in 4% paraformaldehyde in PBS with 0.1% Tween 20 again. The TUNEL staining was achieved by using an in situ apoptosis detection kit. The fixed embryos were immersed in the permeabilization buffer for 30 min on ice. The apoptotic cells were labeled by staining the embryos in a mixture of Terminal Deoxynucleotidyl Transferase (TdT) enzyme and labeling safe buffer containing Fluorescein labeled-2′-Deoxyuridine, 5′-Triphosphate, FITC-dUTP in the ratio of 1 to 9. The embryos were then incubated in a 37° C. humidified chamber for 120 min. The embryos were finally washed thoroughly by PBS in 0.1% Tween 20. The apoptotic signals were captured by a fluorescence microscope (Carl Zeiss, Oberkochen, Germany).

[7] = system: zebrafish (Danio rerio) embryo; assay: Drug toxicity in zebrafish and effect on zebrafish embryos; assay type: in vivo
Protocol: To identify the drug toxicity of the compound of the present invention, zebrafish (Danio rerio) embryo was treated with the compound of Example 1 by concentrations (0, 50, 100, 150, 200, 400 μM), and then cultured in the incubator at 28.5° C. for one hour, washed three times with fresh 0.3× Danieu's Solution, and then cultured at 28.5° C. for 3 hours. The embryotoxicity was identified by examining the hatching rate, organogenesis, development, etc. of embryo under a microscope (AXIO vert 200, Carl zeiss, Gottingen, Germany), and the survival rate of embryo was determined depending on whether the cardiac contractility of embryo is present or absent.
Further, to determine the general toxicity of the compound of Example 1, the influence of the compound of Example 1 on embryos of zebrafish were tested. One female and two male sexually mature zebrafish were maintained for a 14 h light/10 h dark photoperiod. Several rectangular mesh wire boxes were placed at the bottom of the aquaria to collect the eggs the following morning. The eggs were pre-treated with the compound of Example 1 (100 μg/ml) for 1 hr, after then the eggs were washed twice with sea salt 1×. […] After three washes with sea salt 1×, the zebrafish eggs were observed under a microscope.

[8] = system: JNK, p38, cleaved caspase 3, PARP in HEI-OC1; assay: Western blotting of apoptosis-related proteins; assay type: cell-based
[9] = system: HEI-OC1; assay: Measurement of mitochondrial membrane potential (MMP), JC-1; assay type: cell-based
Protocol: The mitochondrial membrane potential (MMP) was measured using 5,5V,6,6V-tetrachloro-1,1V,3,3V-tetraethylbenzimidazolcarbocyanine iodide (JC-1; Molecular Probes) as a lipophilic cationic probe.
JC-1 is a fluorescent dye which is accumulated by mitochondria in its inside. If the function of mitochondria is normal, MMP is high and mitochondria are predominantly red. Then, if mitochondria are damaged, MMP is reduced and mitochondria are changed into green.

[10] = system: HEI-OC1; assay: TUNEL assay; assay type: cell-based
Protocol: 3×10^5 cells were seeded on the 6-well, incubated, then starved for 24 hours, and treated with the drug of the present invention by conditions, and then incubated for 24 hours. The cells were fixed with addition of 4% paraformaldehyde at normal temperature for 30 minutes, then washed two times with PBS, and treated with the permeablilization solution comprising 0.1% Triton X-100 at normal temperature for 10 minutes. The cells were washed again two times with PBS, and after adding terminal deoxynucleotidyl transferase (TDT) and nucleotide mixture, incubated for one hour with blocking out the light at 37° C. After washing two times with PBS, the apoptosis of cells was examined under fluorescence microscope. For control staining of cells without apoptosis, 4,6-diamino-2-phenylindole (DAPI, Sigma) solution was used. The stained cells were analyzed using a fluorescence microscope (Carl Zeiss, Oberkochen, Germany). TUNEL-positive cells were manually counted under a 200× magnification field in triplicate.

[11] = system: auditory cells; assay: FACScan with Annexin-V and PI double staining; assay type: cell-based
Protocol: The degree of apoptosis was analyzed with Annexin V-FITC Apoptosis Detection kit I (BD Biosciences, San Diego, Calif.). 3×10^5 cells were seeded on 60 mm dish, incubated, then starved for 24 hours, and treated with the compounds of Examples 1 and 2 by conditions and incubated for 24 hours. After removing the culture solution, the cells were washed two times with PBS, and suspended in the binding buffer in the ratio of 1×10^6 cells/ml. 100 μl of this solution was transferred to 5 ml tube, and after addition of 5 μl of Annexin V-FITC to the tube, well mixed together, and then reacted for about 15 minutes in the dark place. Then, 400 μl of the binding buffer was added, and the cells were counted until 10,000 cells were on Becton Dicki nson FACSscan (Lysis II Ver. 1.0). The degree of apoptosis was measured depending on the expression of Annexin V-FITC from the result of FACScan flowcytometry. In addition, the degree of apoptosis was also measured under fluorescence microscope.

[12] = system: zebrafish neuromast; assay: Observation of zebrafish neuromast using fluorescent microscope (Yo-Pro-1); assay type: in vivo, Danio rerio
Protocol: When embryo of zebrafish (Danio rerio) wild type is on the 4th day, the drugs (compounds of Examples 1 and 2) were added to 2 ml of embryo media in 6 well, and then 5 embryos were added to each group and reacted with the drug in the incubator maintained at 28.5° C. for one hour. After reaction, embryos were washed three times with embryo media, and then placed in clean embryo media for 3 hours. After 3 hours, […] of Yo-Pro-1 (molecular probes, Oregon U.S.A) was added to embryo media, and then reacted for one hour in the place with blocking the light. After reaction, embryos were washed again three times with clean embryo media, and anesthetized with 8 μg/ml of MS222 (3-aminobenzoic aid ethyl ester, methanesulfonate salt, Sigma Chemical CO, St Louis, U.S.A) anesthetic.

[13] = system: HEI-OC1 cells; assay: Measurement of intracellular ROS generation (DCFDA); assay type: cell-based
Protocol: Intracellular generation of ROS was quantified using 5-(and 6)-carboxyl-20,70-dichlorodihydro fluorescein diacetate (DCFDA; Molecular Probes, Eugene, Oreg., USA). […] ROS generation at various time points was checked and the amount of ROS generation was the highest at 16 h. Therefore, 16 h as the time point for ROS detection was chosen for subsequent experiments. Cells were incubated in the dark with 10 μM DCFDA in serum-free medium for 10 min at 33° C. The oxidative burst (hydrogen peroxide, H2O2) was detected using a FACScan flow cytometer (Becton Dickinson, Franklin Lakes, N.J., USA) with excitation and emission settings at 488 and 530 nm, respectively.

[14] = system: rat hearing; assay: Auditory brainstem responses after transtympanic injection in rat; assay type: in vivo, Sprague-Dawley rats; conditions: rat ears pretreated with transtympanic compound (2 mM), then cisplatin
Protocol: Sixteen female Sprague-Dawley rats (Samtaco, Osan, Korea) weighing between 180 and 220 g were used. After transportation, the animals were maintained in the central animal laboratory for at least 1 week. The animals were housed in independently ventilated cages and were allowed free access to water and food. The temperature was maintained at 21±1° C., and the lights were turned on from 8:00 AM to 8:00 PM. Rats with an inner ear infection were not used. This study was approved by the Committee for Ethics in Animal Experiments of the Ajou University School of Medicine.
Animals were sedated using an intraperitoneal (IP) injection of 3.125 mg/kg xylazine, 3.125 mg/kg zolazepam and 11.5 mg/kg xylazine. The rats were divided into two groups after baseline auditory brainstem response (ABR) testing was performed. […] The control group (four rats, eight ears) received transtympanic saline in both ears followed by IP saline (16 mL/kg by IP infusion). […] Posttreatment ABR was obtained on day 14.
Preyer's reflex and otoscopy were used to confirm that the middle ears were normal. The rats were anaesthetized using an IP injection of 3.125 mg/kg zolazepam and 11.5 mg/kg xylazine. Subdermal sterile stainless steel electrode needles were attached, with the active lead at the vertex that referred to a second electrode located at the tip of the nose. The grounding electrode was placed on the front paw muscles. […]

[15] = system: rat cochlea; assay: Tissue TUNEL assay of rat cochlea; assay type: in vivo; conditions: cisplatin only
Protocol: Animals were sedated using an intraperitoneal (IP) injection of 3.125 mg/kg xylazine, 3.125 mg/kg zolazepam and […]. The rats were divided into two groups after baseline auditory brainstem response (ABR) testing was performed. […] The control group (four rats, eight ears) received transtympanic saline in both ears followed by IP saline (16 mL/kg by IP infusion). The compound of Example 2 only group (four rats, eight ears) received transtympanic the compound of Example 2 in both ears followed by IP saline (16 mL/kg by IP infusion). On days 2 to 5, daily transtympanic injections of either 2 mM the compound of Example 2 or saline were continued. Posttreatment ABR was obtained on day 14.
After fixation by intralabyrinthine perfusion of 4% paraformaldehyde (pH 7.4), the cochleae were removed and then were incubated in the same fixative overnight. Decalcification was performed in ethylenediamine tetraacetic acid solution (EDTA) (10% in PBS) for 3-4 weeks. Subsequently, the tissues were embedded in paraffin.
Organ of Corti explants were each fixed for 15 min in 3.7% (v/v) formaldehyde in PBS at room temperature. Each explant was rinsed with PBS and incubated in proteinase K diluted from the TUNEL kit for 15 min at room temperature. […] Each explant was washed twice with PBS and examined using a fluorescence microscope.

## NC1(c2ccc(F)cc2)C(=O)Nc2ccccc2C1=O (centres unmarked) [Example 1, 3-amino-3-(4-fluorophenyl)quinolin-2,4(1H,3H)-dione]
[1]
  hearing threshold: 25˜35 dB
[2]; UB-OC1, 50 of cisplatin plus compound, as the dose of the compound increases
  cisplatin-induced apoptosis of auditory hair cells (MTT): statistically significantly inhibited
[2]; UB-OC1, compound alone, up to elevated dose of 200
  cytotoxicity in auditory hair cells (MTT): substantially no cytotoxicity
[3]; HEI-OC1, 50 of cisplatin plus compound, as the dose of the compound increases
  cisplatin-induced apoptosis of auditory hair cells (MTT): statistically significantly inhibited
[3]
  cytotoxicity in auditory hair cells (MTT): substantially no cytotoxicity
[4]; cisplatin plus compound
  cisplatin-induced increase in sub G1: effectively reduced
[5]; combined use of compound
  damage of kinocilium and stereocilia caused by cisplatin (SEM, TEM): inhibited the damage of kinocilium and stereocilia
[6]
  TUNEL positive cells in zebrafish larvae compared to cisplatin alone: reduced TUNEL positive cells
[7]; 50, 100, 150, 200, 400 μM
  drug toxicity for 7 days after incubation of zebrafish: did not show the drug toxicity
[7]; cisplatin (50 μM) plus compound, 24 h
  zebrafish embryos, damage caused by cisplatin: rescued
[7]; even at the concentration of 400 μM
  embryotoxicity in zebrafish model: did not show the drug toxicity
[8]; cisplatin plus compound
  cisplatin-induced JNK, p38, cleaved caspase 3, PARP: effectively inhibited
[9]; cisplatin plus compound
  cisplatin-induced mitochondria damage (loss of MMP, green fluorescence): inhibited
[10]; cisplatin (50 μM with Example 1, 20 μM with Example 2) and compound administered at the same time
  apoptosis of auditory cells (TUNEL), cisplatin and compound at the same time: inhibited
[10]
  apoptosis (TUNEL positive cells) on administration of compound alone: did not cause apoptosis
[10]; with cisplatin, dose-dependent manner
  effect of 100 μM compared to 50 μM of compound (TUNEL): better effect
[11]; 50 μM of cisplatin plus compound
  apoptosis increased by cisplatin (annexin/PI FACS), simultaneous administration of compound: statistically significantly inhibited
[11]; with 50 μM cisplatin, dose-dependent manner
  effect of 100 μM compared to 50 μM of compound (annexin/PI FACS): better effect
[12]; cisplatin plus compound, dose-dependent
  neuromast including auditory hair cells disappeared by cisplatin: effectively protected
[13]; 50 μM cisplatin plus compound (100 μg/ml), 16 h
  cisplatin-induced intracellular ROS generation: significantly inhibited

## NC1(c2ccc(F)cc2)C(=O)Nc2cccc(F)c2C1=O (centres unmarked) [Example 2, 3-amino-5-fluoro-3-(4-fluorophenyl)quinolin-2,4(1H,3H)-dione]
[14]
  average click-evoked ABR threshold shift: 38.5±11.3 dB
  click-evoked ABR threshold shift, range: 27-49 dB
[3]
  cytotoxicity in auditory hair cells (MTT): substantially same result
[10]
  apoptosis (TUNEL positive cells) on administration of compound alone: did not cause apoptosis

## N.N.[Cl][Pt][Cl] [cisplatin, reference compound]
[2]; UB-OC1, 50 of cisplatin
  auditory hair cells killed by cisplatin (MTT): about 50%
[3]; HEI-OC1, 50 of cisplatin
  auditory hair cells killed by cisplatin (MTT): about 50%
[4]; cisplatin alone
  sub G1 related to apoptosis: increase
[5]
  kinocilium of auditory cells of neuromast (SEM, TEM): markedly damaged or mostly disappeared or fused
[15]
  TUNEL positive cells in cochlea versus control group: more numerous
[8]; cisplatin alone
  JNK, p38, cleaved caspase 3, PARP: increased
[9]; cisplatin alone
  mitochondrial membrane potential (JC-1 fluorescence): changed into green fluorescence
[11]; 50 μM of cisplatin
  apoptosis (annexin/PI FACS): increased
[12]; 50 μM cisplatin, zebrafish 4th day
  reduction of neuromast: ≥ 70%
[12]; 100 μM cisplatin, zebrafish 4th day
  neuromast: substantially all of neuromast was disappeared
[13]; cisplatin, time-dependent
  generation of intracellular ROS: significantly increased
